Measurements as given in patent US20250340564A1, “COMPOSITIONS USEFUL FOR MODULATING SPLICING” (SKYHAWK THERAPEUTICS, INC., priority 2021, published 2025).

Assays:
[1] = test system: ATXN3 transcripts containing exon 4 (E4E5) in SK-N-MC cells; assay: ATXN3 Quantitative Splicing Assay (qPCR, E4E5 transcripts containing exon 4); type: cell-based; settings: Homo sapiens, 24 h treatment, qPCR primers/probe E4E5
Description: Human neuroblastoma SK-N-MC cells were plated in 384-well plates at 20,000 cells/well. Twenty-four hours after plating, cells were treated with compounds for 24 h at appropriate concentrations ranging from 30 μM to 0.6 nM (0.3% DMSO). Treated cells were lysed in 15 μL of lysis buffer, and cDNA was synthesized using the Fast Advanced Cells-to-Ct kit. Two μL of each cDNA was used in qPCR reactions to confirm the exon 4 skipped transcripts of ATXN3. A second set of primers/probe E4E5 was used to detect the transcripts containing exon 4. The third set of primers/probe E8E9 was used to detect total gene level of ATXN3. The qPCR reactions were prepared in 384-well plates in 10 μL volume, using TaqMan™ Fast Advanced Master Mix with primers and probes shown in the table below. Reactions were run in a Quant Studio 6 qPCR instrument with default settings.
The primers and probes are listed below in Table 4.
(§1) Compounds were tested as outlined in Examples 2 and 3 above and the results are shown below in Table 5.

[2] = test system: total ATXN3 protein levels in SK-N-MC cells; assay: ATXN3 Total Protein Assay (MSD); type: cell-based; settings: Homo sapiens, 48 hours incubation
Description: Human neuroblastoma SK-N-MC cells were seeded at 10,000 cells/well in 384 well plates one day prior to compound treatment. The concentrations of compounds were tested at appropriate doses ranging from 30 μM to 0.6 nM. After incubation for 48 hours, the cells were lysed with 25 μL of lysis buffer containing protease inhibitors, and total ATXN3 protein levels were assessed by Mesoscale Discovery (MSD) assay developed with one pair of anti-ATXN3 antibodies. The capture and detect antibodies were raised in mouse and rabbit respectively. Anti-rabbit MSD-ST antibody was used for secondary antibody.
ATXN3 recombinant protein was used for standards. The readouts were captured with 35 μL of MSD read buffer and multi-array 384-well high binding plates.
as §1

SMILES	IC50 [1] [µM]	IC50 [2] [µM]
c1cc(CNc2cnnc3ccsc23)ccn1 [Compound 33, N-[(pyridin-4-yl)methyl]thieno[3,2-c]pyridazin-4-amine]	10 to 40	10 to 40
C[C@H](N)Cc1sc2c(NCc3ccncc3)cnnc2c1Cl [Compound 8, 6-[(2S)-2-aminopropyl]-7-chloro-N-[(pyridin-4-yl)methyl]thieno[3,2-c]pyridazin-4-amine]	10 to 40	10 to 40
Brc1csc2c(NCc3ccncc3)cnnc12 [Compound 41, 7-bromo-N-[(pyridin-4-yl)methyl]thieno[3,2-c]pyridazin-4-amine]	0.101 to 0.5	10 to 40
Cc1c(C[C@@H](N)CO)sc2c(NCc3ccccc3)cnnc12 [Compound 39, (2R)-2-amino-3-[4-(benzylamino)-7-methylthieno[3,2-c]pyridazin-6-yl]propan-1-ol]	0.501 to 5	0.501 to 5
Cc1c(C[C@@H](N)CCO)sc2c(NCc3ccccc3)cnnc12 [Compound 42, (3S)-3-amino-4-[4-(benzylamino)-7-methylthieno[3,2-c]pyridazin-6-yl]butan-1-ol]	5 to 10	0.501 to 5
Cc1c(C[C@H](C)N)sc2c(NCc3ccncc3F)cnnc12 [Compound 4, 6-[(2S)-2-aminopropyl]-N-[(3-fluoropyridin-4-yl)methyl]-7-methylthieno[3,2-c]pyridazin-4-amine]	5 to 10	10 to 40
CC[C@H](N)Cc1sc2c(NCc3ccncc3)cnnc2c1C [Compound 10, 6-[(2S)-2-aminobutyl]-7-methyl-N-[(pyridin-4-yl)methyl]thieno[3,2-c]pyridazin-4-amine]	10 to 40	10 to 40
Cc1csc2c(NCc3ccncc3F)cnnc12 [Compound 35, N-[(3-fluoropyridin-4-yl)methyl]-7-methylthieno[3,2-c]pyridazin-4-amine]	10 to 40	10 to 40
Cc1c(C[C@@H](N)CO)sc2c(NCc3ccncc3)cnnc12 [Compound 3, (2R)-2-amino-3-(7-methyl-4-{[(pyridin-4-yl)methyl]amino}thieno[3,2-c]pyridazin-6-yl)propan-1-ol]	5 to 10	10 to 40
Cc1c(C[C@H](C)N)sc2c(NCc3ccncc3)cnnc12 [Compound 1, 6-[(2S)-2-aminopropyl]-7-methyl-N-[(pyridin-4-yl)methyl]thieno[3,2-c]pyridazin-4-amine]	5 to 10	5 to 10
Clc1csc2c(NCc3ccncc3)cnnc12 [Compound 38, 7-chloro-N-[(pyridin-4-yl)methyl]thieno[3,2-c]pyridazin-4-amine]	10 to 40	10 to 40
Cc1c(C[C@H](C)N)sc2c(NCc3ccncn3)cnnc12 [Compound 22, 6-[(2S)-2-aminopropyl]-7-methyl-N-[(pyrimidin-4-yl)methyl]thieno[3,2-c]pyridazin-4-amine]	10 to 40	10 to 40
Cc1csc2c(NCc3ccccc3F)cnnc12 [Compound 36, N-[(2-fluorophenyl)methyl]-7-methylthieno[3,2-c]pyridazin-4-amine]	10 to 40	10 to 40
Cc1c(C[C@@H](N)CO)sc2c(NCc3ccncn3)cnnc12 [Compound 23, (2R)-2-amino-3-(7-methyl-4-{[(pyrimidin-4-yl)methyl]amino}thieno[3,2-c]pyridazin-6-yl)propan-1-ol]	10 to 40	10 to 40
Cc1c(C[C@@H](N)CCO)sc2c(NCc3ccncc3)cnnc12 [Compound 11, (3S)-3-amino-4-(7-methyl-4-{[(pyridin-4-yl)methyl]amino}thieno[3,2-c]pyridazin-6-yl)butan-1-ol]	10 to 40	10 to 40
Cc1c(C[C@@H](N)CO)sc2c(NCc3ccccc3F)cnnc12 [Compound 7, (2R)-2-amino-3-(4-{[(2-fluorophenyl)methyl]amino}-7-methylthieno[3,2-c]pyridazin-6-yl)propan-1-ol]	10 to 40	10 to 40
C[C@H](N)Cc1cc2nnc(Br)c(NCc3ccccc3)c2s1 [Compound 40, 6-[(2S)-2-aminopropyl]-N-benzyl-3-bromothieno[3,2-c]pyridazin-4-amine]	10 to 40	10 to 40
Cc1csc2c(NCc3ccncn3)cnnc12 [Compound 34, 7-methyl-N-[(pyrimidin-4-yl)methyl]thieno[3,2-c]pyridazin-4-amine]	10 to 40	10 to 40
Cc1c(C[C@H](C)N)sc2c(NCc3ccccc3F)cnnc12 [Compound 6, 6-[(2S)-2-aminopropyl]-N-[(2-fluorophenyl)methyl]-7-methylthieno[3,2-c]pyridazin-4-amine]	0.501 to 5	5 to 10
Cc1c(C[C@@H](N)CO)sc2c(NCc3ccncc3F)cnnc12 [Compound 5, (2R)-2-amino-3-(4-{[(3-fluoropyridin-4-yl)methyl]amino}-7-methylthieno[3,2-c]pyridazin-6-yl)propan-1-ol]	5 to 10	10 to 40
C[C@H](N)Cc1sc2c(NCc3ccncc3)cnnc2c1Br [Compound 20, 6-[(2S)-2-aminopropyl]-7-bromo-N-[(pyridin-4-yl)methyl]thieno[3,2-c]pyridazin-4-amine]	5 to 10	10 to 40
Cc1c(C[C@H](C)N)sc2c(NCc3ccccc3)cnnc12 [Compound 37, 6-[(2S)-2-aminopropyl]-N-benzyl-7-methylthieno[3,2-c]pyridazin-4-amine]	0.501 to 5	0.501 to 5
